pEC50, pKi: −log10 of the molar value.
Assays:
[1] = biological target: D(3) dopamine receptor (Homo sapiens, UniProt P35462, D110E); experiment: biochemical
Description: Displacement of [3H]spiperone from human D3 D3.32E mutant receptor expressed in human HEK293 cells

[2] = biological target: T1, D(3) dopamine receptor (Homo sapiens, UniProt P35462)
Description: Intrinsic activity at human D3 receptor expressed in CHO dhfr- cells by [3H]thymidine incorporation assay

[3] = biological target: T1, D(3) dopamine receptor; experiment: biochemical
Description: Displacement of [3H]spiperone from human wild type D3 receptor expressed in human HEK293 cells

[4] = biological target: T1, D(3) dopamine receptor; remark: listed apart in the source
Description: Intrinsic activity at human D3 receptor expressed in CHO dhfr- cells assessed as inhibition of forskolin-induced cAMP release

[5] = biological target: D(3) dopamine receptor (Homo sapiens, UniProt P35462, F345W); experiment: biochemical
Sequence of D(3) dopamine receptor (Homo sapiens, UniProt P35462, F345W) (P35462 as listed by the source F345W): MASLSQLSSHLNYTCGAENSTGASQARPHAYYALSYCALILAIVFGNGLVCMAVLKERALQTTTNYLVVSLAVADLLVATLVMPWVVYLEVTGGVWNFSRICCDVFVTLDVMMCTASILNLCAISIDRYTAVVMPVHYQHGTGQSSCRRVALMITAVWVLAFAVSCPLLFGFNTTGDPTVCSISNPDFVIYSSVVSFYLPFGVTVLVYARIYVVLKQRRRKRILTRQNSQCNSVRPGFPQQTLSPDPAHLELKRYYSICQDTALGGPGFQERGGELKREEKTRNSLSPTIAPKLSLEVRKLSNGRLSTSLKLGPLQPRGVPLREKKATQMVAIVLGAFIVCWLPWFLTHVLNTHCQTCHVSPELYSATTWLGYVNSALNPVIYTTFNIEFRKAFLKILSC
Description: Displacement of [3H]spiperone from human D3 F6.51W mutant receptor expressed in human HEK293 cells

[6] = biological target: T2, D(4) dopamine receptor (Homo sapiens, UniProt P21917); experiment: Displacement of [3H]spiperone from human D4 receptor expressed in CHO cells; type: cell-based
T2 sequence (P21917 whole entry): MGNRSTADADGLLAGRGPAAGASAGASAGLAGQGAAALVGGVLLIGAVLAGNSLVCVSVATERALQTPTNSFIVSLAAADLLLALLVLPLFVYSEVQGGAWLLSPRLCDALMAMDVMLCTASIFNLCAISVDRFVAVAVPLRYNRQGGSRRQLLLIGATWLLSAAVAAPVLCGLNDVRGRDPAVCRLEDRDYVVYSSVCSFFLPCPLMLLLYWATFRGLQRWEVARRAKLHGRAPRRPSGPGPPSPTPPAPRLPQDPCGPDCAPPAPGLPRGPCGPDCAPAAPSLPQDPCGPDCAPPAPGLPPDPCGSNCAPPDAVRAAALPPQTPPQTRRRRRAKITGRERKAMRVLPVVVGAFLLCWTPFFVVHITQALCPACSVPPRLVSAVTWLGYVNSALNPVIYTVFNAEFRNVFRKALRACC

[7] = biological target: D(1A) dopamine receptor (Sus scrofa, UniProt P50130); experiment: Displacement of [3H]SCH23390 from D1 receptor in pig striatal membrane; type: cell membranes, Striatum
Sequence of D(1A) dopamine receptor (P50130 whole entry): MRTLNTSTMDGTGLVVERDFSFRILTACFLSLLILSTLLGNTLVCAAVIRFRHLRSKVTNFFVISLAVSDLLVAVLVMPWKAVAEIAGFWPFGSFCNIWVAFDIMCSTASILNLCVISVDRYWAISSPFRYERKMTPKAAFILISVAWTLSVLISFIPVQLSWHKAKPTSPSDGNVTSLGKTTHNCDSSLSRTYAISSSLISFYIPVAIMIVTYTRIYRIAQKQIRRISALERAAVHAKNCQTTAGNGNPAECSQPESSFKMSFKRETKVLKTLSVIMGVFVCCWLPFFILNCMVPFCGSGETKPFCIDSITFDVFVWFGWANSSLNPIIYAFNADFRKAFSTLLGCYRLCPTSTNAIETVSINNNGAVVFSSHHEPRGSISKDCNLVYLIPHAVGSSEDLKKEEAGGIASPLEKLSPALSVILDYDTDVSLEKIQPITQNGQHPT

[8] = Displacement of [3H]WAY100635 from 5HT1A receptor in pig cerebral cortex homogenate
[9] = Displacement of [3H]prazosin from adrenergic alpha1 receptor in pig cerebral cortex homogenate
[10] = Displacement of [3H]ketanserin from 5HT2 receptor in pig cerebral cortex homogenate
[11] = biological target: T1, D(3) dopamine receptor; experiment: biochemical; remark: listed apart in the source
Description: Displacement of [3H]spiperone from human D3 receptor expressed in CHO cells

[12] = biological target: T3, D(2) dopamine receptor (Homo sapiens, UniProt P14416); experiment: Displacement of [3H]spiperone from human D2long receptor expressed in CHO cells; type: cell-based
T3 sequence (P14416 whole entry): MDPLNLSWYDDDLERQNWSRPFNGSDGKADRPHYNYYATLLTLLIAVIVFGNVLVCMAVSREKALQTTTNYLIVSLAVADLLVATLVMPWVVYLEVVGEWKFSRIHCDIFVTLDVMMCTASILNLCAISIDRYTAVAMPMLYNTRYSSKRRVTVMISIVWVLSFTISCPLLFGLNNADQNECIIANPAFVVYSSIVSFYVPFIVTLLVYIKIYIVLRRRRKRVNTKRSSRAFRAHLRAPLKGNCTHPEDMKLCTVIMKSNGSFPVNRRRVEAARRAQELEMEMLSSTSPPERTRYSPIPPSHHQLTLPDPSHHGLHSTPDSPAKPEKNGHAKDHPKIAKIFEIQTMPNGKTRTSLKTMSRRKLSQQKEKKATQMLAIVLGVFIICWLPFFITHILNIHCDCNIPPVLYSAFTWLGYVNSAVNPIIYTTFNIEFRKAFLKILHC

[13] = biological target: T3, D(2) dopamine receptor; experiment: Displacement of [3H]spiperone from human D2short receptor expressed in CHO cells; type: cell-based

T1 sequence (P35462 whole entry): as the sequence (P35462 as listed by the source F345W) above, with S9G, W345F counted along it
Sequence of D(3) dopamine receptor (Homo sapiens, UniProt P35462, D110E) (P35462 as listed by the source D110E): as the sequence (P35462 as listed by the source F345W) above, with D110E, W345F counted along it

Structure (SMILES) | pKi [6] | pKi [7] | pKi [8] | pKi [9] | pKi [10] | pKi [11] | pKi [12] | pKi [13] | pKi [1] | pEC50 [2] | pKi [3] | pEC50 [4] | pKi [5]
C#CC1=CCC(N(CCC)CCC)CC1 (configuration not stated) |  |  |  |  |  |  |  |  | < 5.00 | 8.36 | 6.72 | 8.11 | 5.24
CCCN(CCCCn1cc(-c2ccc(-c3ccccc3)cc2)nn1)C1CC=C(C#Cc2ccccc2)CC1 (configuration not stated) | 5.96 | 5.77 | 5.23 | 6.05 | 5.24 | 6.82 | 6.68 | 6.74 |  |  |  |  | 
CCCN(CCCCn1cc(-c2ccc(-c3ccccc3)cc2)nn1)C1CC=C(C#C[Si](C)(C)C)CC1 (configuration not stated) | 5.74 | 5.24 | 5.16 | 5.72 | 5.08 | 7.89 | 6.16 | 6.17 |  |  |  |  | 
CCCN(CCCCNC(=O)c1ccc(-c2ccccc2)cc1)C1CC=C(C#Cc2ccccc2)CC1 (configuration not stated) | 5.51 | 4.89 | 5.24 | 5.34 | 5.08 | 6.52 | 5.26 | 5.33 |  |  |  |  | 
CCCN(CCCCNC(=O)c1ccc(-c2ccccc2)cc1)C1CC=C(C#C[Si](C)(C)C)CC1 (configuration not stated) | 7.16 | 5.42 | 6.18 | 5.66 | 5.85 | 8.36 | 6.66 | 6.44 |  |  |  |  | 
C#CC1=CCC(N(CCC)CCCCn2cc(-c3ccc(-c4ccccc4)cc3)nn2)CC1 (configuration not stated) | 6.72 | 5.02 | 5.60 | 5.36 | 5.57 | 8.89 | 6.21 | 6.77 | 5.82 | 8.59 | 8.60 | 8.51 | 7.48
CC#CC1=CCC(N(CCC)CCCCn2cc(C)nn2)CC1 (configuration not stated) | 7.00 | < 4.00 | 5.74 | 5.06 | 4.82 | 6.55 | 5.39 | 5.68 |  |  |  |  | 

Now from value to compound, other results behind:

pKi [6] | pKi [7] | pKi [8] | pKi [9] | pKi [10] | pKi [11] | pKi [12] | pKi [13] | Structure (SMILES) | pKi [1] | pEC50 [2] | pKi [3] | pEC50 [4] | pKi [5]
8.37 | 5.54 | 6.64 | 6.29 | 6.34 |  |  |  | C#CC1=CCC(N(CCC)CCCCNC(=O)c2ccc(-c3ccccc3)cc2)CC1 (configuration not stated) |  |  |  |  | 
6.17 | 5.34 | 5.92 | 5.96 | 6.05 | 6.85 | 5.33 | 5.20 | CCCN(CCCCNC(=O)c1ccc(-c2ccccc2)cc1)C1CCCCC1 |  |  |  |  | 
5.21 | 5.14 | 5.02 | 5.60 | 6.07 | 4.96 | 4.68 | < 4.00 | CCCNCCCCNC(=O)c1ccc(-c2ccccc2)cc1 |  |  |  |  | 
5.85 | 5.17 | 5.55 | 5.62 | 6.10 | 6.02 | 5.01 | 5.06 | CCCN(CCC)CCCCNC(=O)c1ccc(-c2ccccc2)cc1 |  |  |  |  | 

— ChEMBL document CHEMBL1142495, “Novel D3 selective dopaminergics incorporating enyne units as nonaromatic catechol bioisosteres: synthesis, bioactivity, and mutagenesis studies” (J Med Chem, 2008)
